Measurements: the NIST ThermoML archive (doi:10.1021/acs.jced.5b00613)

Experiment: xn = mol fraction of the nth substance listed
Conditions: Liquid, Vibrating tube method

CCCCCCCCCCCCCCCC [hexadecane] + CCCCCC
mass density [kg/m3]
Conditions	100 kPa	1000 kPa	5000 kPa	10000 kPa	20000 kPa	30000 kPa	40000 kPa	50000 kPa	60000 kPa
348.15 K, x2 = 0.1985	–	–	–	–	–	–	–	–	765.6
348.15 K, x2 = 0.4136	–	–	–	–	–	–	–	–	751.9
348.15 K, x2 = 0.5007	–	–	–	–	–	–	–	–	744.2
348.15 K, x2 = 0.5966	–	–	–	–	–	–	–	–	735.5
348.15 K, x2 = 0.7928	–	–	–	–	–	–	–	704.3	711
373.15 K, x2 = 0.1985	706.6	707.5	711.7	716.4	725.2	733	740.1	746.6	752.7
373.15 K, x2 = 0.4136	689.1	690.2	694.8	699.9	709.4	717.7	725.3	732.3	738.7
373.15 K, x2 = 0.5007	–	681	685.8	691.2	701	709.7	717.5	724.6	731.2
373.15 K, x2 = 0.5966	–	669.9	674.9	680.7	691	700	708	715.3	722.1
373.15 K, x2 = 0.7928	–	638.3	644.3	651	662.7	672.8	681.7	689.7	697
423.15 K, x2 = 0.1985	668.8	670.8	676.3	682.5	693.7	703.3	711.9	719.7	726.8
423.15 K, x2 = 0.4136	–	651.3	657.6	664.5	676.6	687.1	696.3	704.6	712.1
423.15 K, x2 = 0.5007	–	640.9	647.6	654.9	667.6	678.5	688	696.5	704.2
423.15 K, x2 = 0.5966	–	628.2	635.3	643.3	656.9	668.3	678.2	687.1	695.2
423.15 K, x2 = 0.7928	–	592.3	601.2	610.7	626.4	639.2	650.3	660	668.8
463.15 K, x2 = 0.1985	–	640.3	647.5	655.5	669.1	680.6	690.5	699.3	707.4
463.15 K, x2 = 0.4136	–	618.2	626.5	635.6	650.7	663.2	673.9	683.4	692
463.15 K, x2 = 0.5007	–	606.1	615.2	624.9	640.9	654	665.1	674.9	683.6
463.15 K, x2 = 0.5966	–	593	602.9	613.2	630	643.6	655.2	665.3	674.4
463.15 K, x2 = 0.7928	–	–	563.7	577	597.1	612.8	625.8	637	647
